# Laboratory results taken from BigSolDB 2.1.
smiles,measurement,setting,value
CCOC(=O)[C@H](CCc1ccccc1)N[C@@H](C)C(=O)O,solubility (mole fraction),"in acetone, 273.15 K",0.00387
same,solubility (mole fraction),"in acetone, 278.15 K",0.00426
same,solubility (mole fraction),"in acetone, 283.15 K",0.00468
same,solubility (mole fraction),"in acetone, 288.15 K",0.00515
same,solubility (mole fraction),"in acetone, 293.15 K",0.00568
same,solubility (mole fraction),"in acetone, 298.15 K",0.00627
same,solubility (mole fraction),"in acetone, 303.15 K",0.007
same,solubility (mole fraction),"in acetone, 308.15 K",0.0078
same,solubility (mole fraction),"in acetone, 313.15 K",0.00868
same,solubility (mole fraction),"in acetone, 318.15 K",0.0097
same,solubility (mole fraction),"in acetonitrile, 273.15 K",0.00012
same,solubility (mole fraction),"in acetonitrile, 278.15 K",0.000199
same,solubility (mole fraction),"in acetonitrile, 283.15 K",0.000288
same,solubility (mole fraction),"in acetonitrile, 288.15 K",0.000427
same,solubility (mole fraction),"in acetonitrile, 293.15 K",0.000608
same,solubility (mole fraction),"in acetonitrile, 298.15 K",0.000907
same,solubility (mole fraction),"in acetonitrile, 303.15 K",0.00129
same,solubility (mole fraction),"in acetonitrile, 308.15 K",0.00183
same,solubility (mole fraction),"in acetonitrile, 313.15 K",0.00255
same,solubility (mole fraction),"in acetonitrile, 318.15 K",0.00349
same,solubility (mole fraction),"in ethanol, 273.15 K",0.00273
same,solubility (mole fraction),"in ethanol, 278.15 K",0.00281
same,solubility (mole fraction),"in ethanol, 283.15 K",0.00294
same,solubility (mole fraction),"in ethanol, 288.15 K",0.00312
same,solubility (mole fraction),"in ethanol, 293.15 K",0.00334
same,solubility (mole fraction),"in ethanol, 298.15 K",0.0036
same,solubility (mole fraction),"in ethanol, 303.15 K",0.00396
same,solubility (mole fraction),"in ethanol, 308.15 K",0.00436
same,solubility (mole fraction),"in ethanol, 313.15 K",0.00489
same,solubility (mole fraction),"in ethanol, 318.15 K",0.00545
same,solubility (mole fraction),"in ethyl acetate, 273.15 K",0.00898
same,solubility (mole fraction),"in ethyl acetate, 278.15 K",0.0092
same,solubility (mole fraction),"in ethyl acetate, 283.15 K",0.00951
same,solubility (mole fraction),"in ethyl acetate, 288.15 K",0.00991
same,solubility (mole fraction),"in ethyl acetate, 293.15 K",0.0104
same,solubility (mole fraction),"in ethyl acetate, 298.15 K",0.0109
same,solubility (mole fraction),"in ethyl acetate, 303.15 K",0.0115
same,solubility (mole fraction),"in ethyl acetate, 308.15 K",0.0123
same,solubility (mole fraction),"in ethyl acetate, 313.15 K",0.0131
same,solubility (mole fraction),"in ethyl acetate, 318.15 K",0.014
same,solubility (mole fraction),"in isopropanol, 273.15 K",0.000921
same,solubility (mole fraction),"in isopropanol, 278.15 K",0.00105
same,solubility (mole fraction),"in isopropanol, 283.15 K",0.0012
same,solubility (mole fraction),"in isopropanol, 288.15 K",0.00141
same,solubility (mole fraction),"in isopropanol, 293.15 K",0.00164
same,solubility (mole fraction),"in isopropanol, 298.15 K",0.00191
same,solubility (mole fraction),"in isopropanol, 303.15 K",0.00221
same,solubility (mole fraction),"in isopropanol, 308.15 K",0.00257
same,solubility (mole fraction),"in isopropanol, 313.15 K",0.00298
same,solubility (mole fraction),"in isopropanol, 318.15 K",0.00346
same,solubility (mole fraction),"in n-octanol, 273.15 K",0.00215
same,solubility (mole fraction),"in n-octanol, 278.15 K",0.00223
same,solubility (mole fraction),"in n-octanol, 283.15 K",0.00233
same,solubility (mole fraction),"in n-octanol, 288.15 K",0.00246
same,solubility (mole fraction),"in n-octanol, 293.15 K",0.00263
same,solubility (mole fraction),"in n-octanol, 298.15 K",0.00284
same,solubility (mole fraction),"in n-octanol, 303.15 K",0.0031
same,solubility (mole fraction),"in n-octanol, 308.15 K",0.00343
same,solubility (mole fraction),"in n-octanol, 313.15 K",0.00378
same,solubility (mole fraction),"in n-octanol, 318.15 K",0.0042
CCOC(=O)[C@H](CCc1ccccc1)N[C@@H](C)C(=O)N1CCC[C@H]1C(=O)O.O=C(O)/C=C\C(=O)O,solubility (mole fraction),"in acetone, 273.15 K",0.00118
same,solubility (mole fraction),"in acetone, 278.15 K",0.00139
same,solubility (mole fraction),"in acetone, 283.15 K",0.00176
same,solubility (mole fraction),"in acetone, 288.15 K",0.0021
same,solubility (mole fraction),"in acetone, 293.15 K",0.00243
same,solubility (mole fraction),"in acetone, 298.15 K",0.00302
same,solubility (mole fraction),"in acetone, 303.15 K",0.0038
same,solubility (mole fraction),"in acetone, 308.15 K",0.00451
same,solubility (mole fraction),"in acetone, 313.15 K",0.0054
same,solubility (mole fraction),"in acetone, 318.15 K",0.00651
same,solubility (mole fraction),"in acetonitrile, 273.15 K",0.000339
same,solubility (mole fraction),"in acetonitrile, 278.15 K",0.000452
same,solubility (mole fraction),"in acetonitrile, 283.15 K",0.000569
same,solubility (mole fraction),"in acetonitrile, 288.15 K",0.000716
same,solubility (mole fraction),"in acetonitrile, 293.15 K",0.0009
same,solubility (mole fraction),"in acetonitrile, 298.15 K",0.00117
same,solubility (mole fraction),"in acetonitrile, 303.15 K",0.00153
same,solubility (mole fraction),"in acetonitrile, 308.15 K",0.00204
same,solubility (mole fraction),"in acetonitrile, 313.15 K",0.00261
same,solubility (mole fraction),"in acetonitrile, 318.15 K",0.00334
same,solubility (mole fraction),"in ethanol, 273.15 K",0.000616
same,solubility (mole fraction),"in ethanol, 278.15 K",0.000761
same,solubility (mole fraction),"in ethanol, 283.15 K",0.000998
same,solubility (mole fraction),"in ethanol, 288.15 K",0.00133
same,solubility (mole fraction),"in ethanol, 293.15 K",0.00177
same,solubility (mole fraction),"in ethanol, 298.15 K",0.00226
same,solubility (mole fraction),"in ethanol, 303.15 K",0.00292
same,solubility (mole fraction),"in ethanol, 308.15 K",0.00366
same,solubility (mole fraction),"in ethanol, 313.15 K",0.00449
same,solubility (mole fraction),"in ethanol, 318.15 K",0.00536
same,solubility (mole fraction),"in ethyl acetate, 273.15 K",0.0013
same,solubility (mole fraction),"in ethyl acetate, 278.15 K",0.00171
same,solubility (mole fraction),"in ethyl acetate, 283.15 K",0.00231
same,solubility (mole fraction),"in ethyl acetate, 288.15 K",0.00304
same,solubility (mole fraction),"in ethyl acetate, 293.15 K",0.00379
same,solubility (mole fraction),"in ethyl acetate, 298.15 K",0.00471
same,solubility (mole fraction),"in ethyl acetate, 303.15 K",0.00576
same,solubility (mole fraction),"in ethyl acetate, 308.15 K",0.00689
same,solubility (mole fraction),"in ethyl acetate, 313.15 K",0.00796
same,solubility (mole fraction),"in ethyl acetate, 318.15 K",0.00941
same,solubility (mole fraction),"in isopropanol, 273.15 K",0.000144
same,solubility (mole fraction),"in isopropanol, 278.15 K",0.000184
same,solubility (mole fraction),"in isopropanol, 283.15 K",0.000242
same,solubility (mole fraction),"in isopropanol, 288.15 K",0.000327
same,solubility (mole fraction),"in isopropanol, 293.15 K",0.000452
same,solubility (mole fraction),"in isopropanol, 298.15 K",0.000605
same,solubility (mole fraction),"in isopropanol, 303.15 K",0.000809
same,solubility (mole fraction),"in isopropanol, 308.15 K",0.00105
same,solubility (mole fraction),"in isopropanol, 313.15 K",0.00133
same,solubility (mole fraction),"in isopropanol, 318.15 K",0.00176
same,solubility (mole fraction),"in n-octanol, 273.15 K",0.000311
same,solubility (mole fraction),"in n-octanol, 278.15 K",0.000406
same,solubility (mole fraction),"in n-octanol, 283.15 K",0.000509
same,solubility (mole fraction),"in n-octanol, 288.15 K",0.000642
same,solubility (mole fraction),"in n-octanol, 293.15 K",0.00083
same,solubility (mole fraction),"in n-octanol, 298.15 K",0.00105
same,solubility (mole fraction),"in n-octanol, 303.15 K",0.00131
same,solubility (mole fraction),"in n-octanol, 308.15 K",0.00167
same,solubility (mole fraction),"in n-octanol, 313.15 K",0.00206
same,solubility (mole fraction),"in n-octanol, 318.15 K",0.00256
